Like-named read-outs stand apart in the source and are kept apart here.
SMILES: CC(=O)O.CN1CCN(c2nc(C3=C(c4c[nH]c5ccccc45)C(=O)NC3=O)c3ccccc3n2)CC1 [Form B, 3-(1.H.-indol-3-yl)-4-[2-(4-methyl-piperazin-1-yl)-quinazolin-4-yl]-pyrrole-2,5-dione acetate]
- Moisture Sorption at 25° (Relative humidity 45 %): 0.4
- Moisture Sorption at 25° (Relative humidity 55 %): 0.5
- Moisture Sorption at 25° (Relative humidity 75 %): 0.6
- Moisture Sorption at 25° (Relative humidity 85 %): 0.7
- Moisture Sorption at 25° (Relative humidity 95 %): 0.6
- XRPD pattern after DVS (after DVS moisture sorption at 25°): no change
- maximum water uptake (at 80% r.h.): 0.7%

Reference: patent US8865897B2, “Crystal modifications-3-(1H-indol-3-yl)-4- [4-methyl-piperazin-1-yl)-quinazolin-4-yl] -pyrrole-2, 5-D ione” (Novartis AG, priority 2006, dated 2014)
